Blank lines part the entries; values can stand above or below the molecule they belong to.
How the values were obtained:
[1] = test system: B16F10 mouse melanoma cells; assay: LED/PDT irradiation experiment with MTT cell proliferation readout; type: cell-based; conditions: no irradiation, RuC2 at 8×10^−5 M
Experimental: LED-irradiation experiments employing RL5-B12120 Superbright LED's, (Qmax=470 nm, light output 0.0114±0.0008 W) and a light-attenuation system consisting of a series of parallel optical filters was performed. After trypsinization, B16F10 mouse melanoma cells were counted using a hemacytometer and the trypan blue exclusion method, and plated in tissue culture plates (TPP brand, Midwest Scientific). Four hours post-plating, RuC2, TCPP, or a 1:1 mixture of RuC2 and TCPP was added to the plates, with the 1:1 mixture containing each agent at half their respective concentrations to permit comparisons at the same molar concentrations of PDT-agents. The cells were then stored in the dark for 24 hours. Next, the cells were irradiated with high or low intensity of LED light for 45 min. Twenty-four hours post-radiation, MTT cell proliferation reagent (thiazolyl blue) was added to the cells, which were then incubated four hours. Next, SDS-solubilization buffer was added and the cells were incubated for 12 hours. The plates were then read using a plate reader (Spectramax 190) at 550 nm and 690 nm (background establishment).

[2] = test system: 4T1luc2 breast cancer tumors; assay: Deep-tissue PDT treatment of metastatic 4T1 breast cancer in mice; type: in vivo, BALB C mice; conditions: DFO 300 mg/kg i.p.; p-value: 0.65
Experimental: In this Example, PDT using in-situ generation of light was used to treat metastatic breast cancer in BALB C mice. ALA was used as the only photosensitizer/prodrug, and DFO was used as the iron chelator. The mice were divided into three treatment groups as follows. On Day 0, the mice were inoculated with 4T1luc2 breast cancer cells (100,000/mouse, i.v.). On Day 3, 25 million NSCs were plated as described above for transfection. On Day 4, the cells were transfected with Glue. On Day 5, IVIS imaging with D-luciferin was carried out in the morning to determine tumor size and stratification of the mice. In the afternoon, the mice in Groups 2 and 3 were injected with the transfected cells (1 million/mouse). On Day 7, DFO was administered i.p. (300 mg/kg), as described above. On Day 8, the photosensitizing agent, ALA, was injected i.p. (100 mg/kg). Four hours later, cyclodextrin-complexed coelenterazine was administered i.v. (100 μg) into the tail vein of each mouse. The ALA/coelenterazine procedure was repeated on Day 9, and then on Day 10. The control groups were injected with PBS.

Redox potentials of RuC2 = type: physicochemical
[3] = cited from earlier work

Compound: O=C(O)c1ccc(-c2c3nc(c(-c4ccc(C(=O)O)cc4)c4ccc([nH]4)c(-c4ccc(C(=O)O)cc4)c4nc(c(-c5ccc(C(=O)O)cc5)c5ccc2[nH]5)C=C4)C=C3)cc1 [TCPP, tetrakis-4-carboxyphenyl-porphyrin]
growth inhibition in the absence of irradiation [1]: zero

Compound: CC(=O)N(O)CCCCCNC(=O)CCC(=O)N(O)CCCCCNC(=O)CCC(=O)N(O)CCCCCN [DFO, deferoxamine]
effect of the iron chelator on tumor growth [2]: mild effect in suppressing tumor growth

E0 Ru^2+/1+ (Redox potentials of RuC2): −0.477 V
photochemical reduction potential E0*Ru^2+/1+ (Redox potentials of RuC2): 1.670 V
oxidation potential E0 Ru^3+/2 (Redox potentials of RuC2; vs. SHE, pH=7.0): 1.537 V
Compound: O=C(O)CC[n+]1ccc(-c2ccnc(-c3cc(-c4cc[n+](CCC(=O)O)cc4)ccn3)c2)cc1.O=C(O)CC[n+]1ccc(-c2ccnc(-c3cc(-c4cc[n+](CCC(=O)O)cc4)ccn3)c2)cc1.O=C(O)CC[n+]1ccc(-c2ccnc(-c3cc(-c4cc[n+](CCC(=O)O)cc4)ccn3)c2)cc1.[Cl-].[Cl-].[Cl-].[Cl-].[Cl-].[Cl-].[Cl-].[Cl-].[Ru+2] [RuC2, Tris(N,N′″-bis(2-carboxyethyl)-4,4′:2,2″:4″,4′″-Quaterpyridine-N′N″-dium-N′,N′″) ruthenium(II)octachloride]
growth inhibition in the absence of irradiation [1]: approx. 20%

Compound: O=c1c(Cc2ccc(O)cc2)nc2c(Cc3ccccc3)[nH]c(-c3ccc(O)cc3)cn1-2 [coelenterazine, 2-(4-hydroxybenzyl)-6-(4-hydroxyphenyl)-8-(phenylmethyl)imidazo[1,2-a]pyrazin-3(7H)-one]
long-term stability ([3]; commercially available material): not long-term stable
water solubility ([3]; native form): low

— US20130243741A1, “RENILLA/GAUSSIA TRANSFECTED CELLS AS A LIGHT SOURCE FOR IN-SITU PHOTODYNAMIC THERAPY OF CANCER” (KANSAS STATE UNIVERSITY RESEARCH FOUNDATION, priority 2010, published 2013)
